Assay results published in US20240368163A1, “COMPOUNDS AND METHODS FOR MODULATING SPLICING” (REMIX THERAPEUTICS INC., priority 2021, published 2024).

Assays:
Assay type in all cases: cell-based, human
Target C [1] = assay: Splicing RT-qPCR panel, Target C canonical junction (CJ) mRNA; conditions: Homo sapiens, RT-qPCR panel, canonical junction mRNA; compound concentration having 50% response in CJ decrease; read-out: Target C IC50 (decrease in CJ mRNA levels)
Method in brief: (§1)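 Splice switching is measured in A673 or K562 cells after 24 h compound exposure (maximum 10 uM, 3-fold steps). Canonical and alternative junction mRNA levels are quantified by RT-qPCR relative to housekeeper and DMSO.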

SMN2 = assay: Splicing RT-qPCR panel, SMN2 canonical junction (CJ) mRNA; conditions: Homo sapiens, RT-qPCR panel, canonical junction mRNA; compound concentration having 50% response in CJ decrease; read-out: SMN2 IC50 (decrease in CJ mRNA levels)
Method in brief: as §1

Target C [2] = assay: HiBiT protein abundance assay, Target C; conditions: Homo sapiens, K562, 24 h, Table 13A, modified K562 cells
Method in brief: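 HiBiT knock-in K562-derived cells seeded at 10000/well and treated with 10-point 3-fold dilutions (top final 10 μM, ≤0.25% DMSO) for 24 h at 37 °C. Lytic HiBiT luminescence normalised to unmodified-cell and DMSO controls; IC50 from 4-parameter fit at 50% abundance.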

MYB [3] = assay: Splicing RT-qPCR assay, MYB mRNA canonical junction (CJ) and alternative junction (AJ); conditions: Homo sapiens; for AC50: increase in AJ mRNA
Method in brief: as §1

HTT [4] = assay: Splicing RT-qPCR assay, HTT mRNA canonical junction (CJ) and alternative junction (AJ); conditions: Homo sapiens; for AC50: increase in AJ mRNA
Method in brief: as §1

HTT [5] = assay: HiBiT protein abundance assay, HTT; conditions: Homo sapiens, K562, 24 h, Table 13A, modified K562 cells
Method in brief: (§2)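 HiBiT-tagged endogenous targets in K562 cells treated 24 h at 37° C. with 10-point 3-fold dilutions (top 10 μM, DMSO ≤0.25%). Luminescence read after lytic LgBiT detection; response normalised to unmodified-cell and DMSO controls, IC50 interpolated at 50% from four-parameter logistic fit.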

MYB [6] = assay: HiBiT protein abundance assay, MYB; conditions: Homo sapiens, K562, 24 h, Table 13A, modified K562 cells
Method in brief: as §2

[7] = 24 h, decrease in CJ mRNA, A673 or K562 cells, 24 hours treatment, RT-qPCR, read-out: MYB CJ IC50
[8] = 24 h, A673 or K562 cells, 24 hours treatment, RT-qPCR
[9] = RT-qPCR panel, canonical junction mRNA, compound concentration having 50% response in CJ decrease, read-out: MYB IC50 (decrease in CJ mRNA levels)
[10] = 24 h, decrease in CJ mRNA, A673 or K562 cells, 24 hours treatment, RT-qPCR, read-out: HTT CJ IC50
[11] = RT-qPCR panel, canonical junction mRNA, compound concentration having 50% response in CJ decrease, read-out: HTT IC50 (decrease in CJ mRNA levels)

IC50 (Target C [1])	IC50 (SMN2)	IC50 (Target C [2])	IC50 (MYB [3]; [7])	IC50 (MYB [3]; [9])	IC50 (HTT [4]; [10])	IC50 (HTT [4]; [11])	IC50 (HTT [5])	IC50 (MYB [6])	SMILES	AC50 (MYB [3]; [8])	AC50 (HTT [4]; [8])
> 10 µM	> 10 µM	> 10 µM	> 10 µM	> 10 µM	> 10 µM	> 10 µM	> 10 µM	> 10 µM	c1n[nH]cc1-c1ccc(-c2ccc(NC3CNC3)nn2)c2[nH]ncc12 [Compound 237]	> 10 µM	> 10 µM
> 10 µM	> 10 µM	> 10 µM	> 10 µM	> 10 µM	> 10 µM	> 10 µM	> 10 µM	> 10 µM	c1n[nH]cc1-c1ccc(-c2ccc(N3CCC4(CC3)CNC4)nn2)c2[nH]ncc12 [Compound 238]	> 10 µM	> 10 µM
> 10 µM	> 10 µM	> 10 µM	> 10 µM	> 10 µM	> 10 µM	> 10 µM	> 10 µM	> 10 µM	c1n[nH]cc1-c1ccc(-c2ccc(N3CCC4(CCNCC4)C3)nn2)c2[nH]ncc12 [Compound 239]	> 10 µM	> 10 µM
> 10 µM	> 10 µM	> 10 µM	> 10 µM	> 10 µM	> 10 µM	> 10 µM	> 10 µM	> 10 µM	c1n[nH]cc1-c1ccc(-c2ccc(N3CCC4(CCNC4)CC3)nn2)c2[nH]ncc12 [Compound 240]	> 10 µM	> 10 µM
> 10 µM	1 to 10 µM	1 to 10 µM	> 10 µM	> 10 µM	> 10 µM	> 10 µM	1 to 10 µM	1 to 10 µM	c1n[nH]cc1-c1ccc(-c2ccc(N3CCNCC3)nn2)c2[nH]ncc12 [Compound 241]	1 to 10 µM	1 to 10 µM
> 10 µM	> 10 µM	> 10 µM	> 10 µM	> 10 µM	> 10 µM	> 10 µM	> 10 µM	> 10 µM	c1n[nH]cc1-c1ccc(-c2ccc(N3CCCC4(CNC4)C3)nn2)c2[nH]ncc12 [Compound 251]	> 10 µM	> 10 µM
> 10 µM	1 to 10 µM	> 10 µM	> 10 µM	> 10 µM	> 10 µM	> 10 µM	> 10 µM	1 to 10 µM	c1n[nH]cc1-c1ccc(-c2ccc(N3CCC4(CCCNC4)C3)nn2)c2[nH]ncc12 (centres unmarked) [Compound 252]	> 10 µM	> 10 µM
> 10 µM	> 10 µM	> 10 µM	> 10 µM	> 10 µM	> 10 µM	> 10 µM	> 10 µM	> 10 µM	c1n[nH]cc1-c1ccc(-c2ccc(N3CCCC4(CCNC4)C3)nn2)c2[nH]ncc12 (centres unmarked) [Compound 253]	> 10 µM	> 10 µM
> 10 µM	0.1 to 1 µM	> 10 µM	> 10 µM	> 10 µM	> 10 µM	> 10 µM	> 10 µM	> 10 µM	c1n[nH]cc1-c1ccc(-c2ccc(N3C[C@H]4CNC[C@H]4C3)nn2)c2[nH]ncc12 [Compound 254]	1 to 10 µM	> 10 µM
> 10 µM	0.1 to 1 µM	> 10 µM	> 10 µM	> 10 µM	> 10 µM	> 10 µM	1 to 10 µM	1 to 10 µM	CN1C[C@@H]2CN(c3ccc(-c4ccc(-c5cn[nH]c5)c5cn[nH]c45)nn3)C[C@@H]2C1 [Compound 255]	1 to 10 µM	> 10 µM
> 10 µM	> 10 µM	> 10 µM	> 10 µM	> 10 µM	> 10 µM	> 10 µM	> 10 µM	> 10 µM	c1n[nH]cc1-c1ccc(-c2ccc(NC3CCNCC3)nn2)c2[nH]ncc12 [Compound 263]	> 10 µM	> 10 µM
> 10 µM	0.1 to 1 µM	> 10 µM	1 to 10 µM	1 to 10 µM	> 10 µM	> 10 µM	> 10 µM	> 10 µM	c1nc2c(-c3cn[nH]c3)ccc(-c3ccc(N4CCC5(CCN5)C4)nn3)c2s1 (centres unmarked) [Compound 265]	> 10 µM	> 10 µM
> 10 µM	> 10 µM	> 10 µM	1 to 10 µM	1 to 10 µM	1 to 10 µM	1 to 10 µM	1 to 10 µM	1 to 10 µM	c1nc2c(-c3cn[nH]c3)ccc(-c3ccc(N4CCC45CCNCC5)nn3)c2s1 [Compound 266]	> 10 µM	> 10 µM
1 to 10 µM	0.1 to 1 µM	< 0.1 µM	0.1 to 1 µM	0.1 to 1 µM	0.1 to 1 µM	0.1 to 1 µM	0.1 to 1 µM	0.1 to 1 µM	CC1(C)CC(Nc2ccc(-c3ccc(-c4cn[nH]c4)c4cn[nH]c34)nn2)CC(C)(C)N1 [Compound 275]	1 to 10 µM	1 to 10 µM
1 to 10 µM	1 to 10 µM	1 to 10 µM	1 to 10 µM	1 to 10 µM	1 to 10 µM	1 to 10 µM	1 to 10 µM	1 to 10 µM	c1nc2c(-c3cn[nH]c3)ccc(-c3ccc(N4CCC45CCCNC5)nn3)c2s1 (centres unmarked) [Compound 276]	1 to 10 µM	1 to 10 µM

SMILES	IC50 (Target C [1])	IC50 (SMN2)	IC50 (Target C [2])	IC50 (MYB [3]; [7])	IC50 (MYB [3]; [9])	IC50 (HTT [4]; [10])	IC50 (HTT [4]; [11])	IC50 (HTT [5])	IC50 (MYB [6])	AC50 (MYB [3]; [8])	AC50 (HTT [4]; [8])
CN(c1ccc(-c2ccc(-c3cnnc(O)c3)c3scnc23)nn1)C1CC(C)(C)NC(C)(C)C1 [Compound 234]	> 10 µM	0.1 to 1 µM	> 10 µM	> 10 µM	> 10 µM	> 10 µM	> 10 µM	1 to 10 µM	1 to 10 µM	> 10 µM	> 10 µM
CN1C[C@@H]2[C@H](C1)[C@H]2N(C)c1ccc(-c2ccc(-c3cn[nH]c3)c3ncsc23)nn1 [Compound 235]	> 10 µM	1 to 10 µM	0.1 to 1 µM	> 10 µM	> 10 µM	> 10 µM	> 10 µM	1 to 10 µM	1 to 10 µM	> 10 µM	> 10 µM
CN(c1ccc(-c2ccc(-c3cnn(C)c3)c3cn[nH]c23)nn1)C1CC(C)(C)NC(C)(C)C1 [Compound 243]	> 10 µM	0.1 to 1 µM	> 10 µM	1 to 10 µM	1 to 10 µM	1 to 10 µM	1 to 10 µM	1 to 10 µM	1 to 10 µM	1 to 10 µM	1 to 10 µM
CN(c1ccc(-c2ccc(-n3cccn3)c3cn[nH]c23)nn1)C1CCNCC1 [Compound 264]	> 10 µM	1 to 10 µM	1 to 10 µM	> 10 µM	> 10 µM	> 10 µM	> 10 µM	1 to 10 µM	1 to 10 µM	> 10 µM	> 10 µM
[2H]C([2H])([2H])N(c1ccc(-c2ccc(-c3cn[nH]c3)c3cn[nH]c23)nn1)C1CCNCC1 [Compound 267]	> 10 µM	1 to 10 µM	1 to 10 µM	> 10 µM	> 10 µM	> 10 µM	> 10 µM	1 to 10 µM	1 to 10 µM	> 10 µM	> 10 µM
CN(c1ccc(-c2ccc(-c3cn[nH]c3)c3cn[nH]c23)nn1)C1CCNCC1 [Compound 273]	> 10 µM	1 to 10 µM	1 to 10 µM	> 10 µM	> 10 µM	> 10 µM	> 10 µM	> 10 µM	1 to 10 µM	> 10 µM	> 10 µM
CCN(c1ccc(-c2ccc(-c3cn[nH]c3)c3cn[nH]c23)nn1)C1CCNCC1 [Compound 274]	> 10 µM	1 to 10 µM	1 to 10 µM	> 10 µM	> 10 µM	> 10 µM	> 10 µM	1 to 10 µM	1 to 10 µM	> 10 µM	> 10 µM
